Assay results taken from PubChem BioAssay (NCI).
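Dose response: 5 concentrations. Exposure: 48 h. Format: 96-well plates. Endpoint: linear interpolation; highest concentration if not reached. Abbreviation: GI50, concentration required for 50% inhibition of growth. TGI: total growth inhibition.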

Experiments:
Assay in all cases: NCI-60 cell line screen, 48 h
HL-60(TB) leukemia = tested on: HL-60(TB) leukemia
A549 NSCLC = tested on: A549 NSCLC
T-47D breast = tested on: T-47D breast
LOX IMVI melanoma = tested on: LOX IMVI melanoma
NCI-H23 lung = tested on: NCI-H23 lung
A498 renal = tested on: A498 renal
TK-10 renal = tested on: TK-10 renal
SNB-75 CNS = tested on: SNB-75 CNS
SK-MEL-5 melanoma = tested on: SK-MEL-5 melanoma
DU-145 prostate = tested on: DU-145 prostate
SN12C renal = tested on: SN12C renal
SF-539 CNS = tested on: SF-539 CNS
NCI-H226 lung = tested on: NCI-H226 lung
SK-OV-3 ovarian = tested on: SK-OV-3 ovarian
SK-MEL-2 melanoma = tested on: SK-MEL-2 melanoma
ACHN renal = tested on: ACHN renal
IGROV1 ovarian = tested on: IGROV1 ovarian
SK-MEL-28 melanoma = tested on: SK-MEL-28 melanoma
HCT-15 colon = tested on: HCT-15 colon
MALME-3M melanoma = tested on: MALME-3M melanoma
HOP-92 NSCLC = tested on: HOP-92 NSCLC
OVCAR-3 ovarian = tested on: OVCAR-3 ovarian
SNB-19 CNS = tested on: SNB-19 CNS
CAKI-1 renal = tested on: CAKI-1 renal
SR leukemia = tested on: SR leukemia
OVCAR-8 ovarian = tested on: OVCAR-8 ovarian
NCI/ADR-RES ovarian = tested on: NCI/ADR-RES ovarian
COLO 205 colon = tested on: COLO 205 colon
HS 578T breast = tested on: HS 578T breast
UACC-62 melanoma = tested on: UACC-62 melanoma
CCRF-CEM leukemia = tested on: CCRF-CEM leukemia
HT29 colon = tested on: HT29 colon
MOLT-4 leukemia = tested on: MOLT-4 leukemia
MDA-MB-435 = tested on: MDA-MB-435
OVCAR-4 ovarian = tested on: OVCAR-4 ovarian
OVCAR-5 ovarian = tested on: OVCAR-5 ovarian
PC-3 prostate = tested on: PC-3 prostate
SF-295 CNS = tested on: SF-295 CNS
BT-549 breast = tested on: BT-549 breast
SW-620 colon = tested on: SW-620 colon
K-562 leukemia = tested on: K-562 leukemia
NCI-H460 lung = tested on: NCI-H460 lung
MCF7 breast = tested on: MCF7 breast
M14 melanoma = tested on: M14 melanoma
UACC-257 melanoma = tested on: UACC-257 melanoma
KM12 colon = tested on: KM12 colon
MDA-MB-231 breast = tested on: MDA-MB-231 breast
UO-31 renal = tested on: UO-31 renal
HCC-2998 colon = tested on: HCC-2998 colon
NCI-H522 lung = tested on: NCI-H522 lung
HOP-62 NSCLC = tested on: HOP-62 NSCLC
RPMI-8226 leukemia = tested on: RPMI-8226 leukemia
U251 CNS = tested on: U251 CNS
786-0 renal = tested on: 786-0 renal
SF-268 CNS = tested on: SF-268 CNS

CC(C)(C)c1cc(-c2nc3ccc(N4CCN(CCO)CC4)cc3[nH]2)cc(C(C)(C)C)c1O
GI50 (HL-60(TB) leukemia): 1.84 µM
TGI (HL-60(TB) leukemia): 4.86 µM
GI50 (A549 NSCLC): 3.51 µM
TGI (A549 NSCLC): > 100 µM
GI50 (T-47D breast): 2.86 µM
TGI (T-47D breast): > 100 µM
GI50 (LOX IMVI melanoma): 1.86 µM
TGI (LOX IMVI melanoma): 3.43 µM
GI50 (NCI-H23 lung): 4.65 µM
TGI (NCI-H23 lung): > 100 µM
GI50 (A498 renal): 6.1 µM
TGI (A498 renal): > 100 µM
GI50 (TK-10 renal): 4.69 µM
TGI (TK-10 renal): > 100 µM
GI50 (SNB-75 CNS): 1.21 µM
TGI (SNB-75 CNS): 4.55 µM
GI50 (SK-MEL-5 melanoma): 1.74 µM
TGI (SK-MEL-5 melanoma): 3.14 µM
GI50 (DU-145 prostate): 4.08 µM
TGI (DU-145 prostate): > 100 µM
GI50 (SN12C renal): 3.77 µM
TGI (SN12C renal): > 100 µM
GI50 (SF-539 CNS): 2.13 µM
TGI (SF-539 CNS): 4.91 µM
GI50 (NCI-H226 lung): 21.5 µM
TGI (NCI-H226 lung): > 100 µM
GI50 (SK-OV-3 ovarian): 12.7 µM
TGI (SK-OV-3 ovarian): 86.1 µM
GI50 (SK-MEL-2 melanoma): 2.39 µM
TGI (SK-MEL-2 melanoma): 5.73 µM
GI50 (ACHN renal): 3.39 µM
TGI (ACHN renal): > 100 µM
GI50 (IGROV1 ovarian): 3.25 µM
TGI (IGROV1 ovarian): > 100 µM
GI50 (SK-MEL-28 melanoma): 1.68 µM
TGI (SK-MEL-28 melanoma): 3.1 µM
GI50 (HCT-15 colon): 1.55 µM
TGI (HCT-15 colon): 3.05 µM
GI50 (MALME-3M melanoma): 1.47 µM
TGI (MALME-3M melanoma): 2.83 µM
GI50 (HOP-92 NSCLC): 1.41 µM
TGI (HOP-92 NSCLC): 4.44 µM
GI50 (OVCAR-3 ovarian): 3.36 µM
TGI (OVCAR-3 ovarian): > 100 µM
GI50 (SNB-19 CNS): 3.48 µM
TGI (SNB-19 CNS): > 100 µM
GI50 (CAKI-1 renal): 1.97 µM
TGI (CAKI-1 renal): 4.45 µM
GI50 (SR leukemia): 2.77 µM
TGI (SR leukemia): > 100 µM
GI50 (OVCAR-8 ovarian): 6.53 µM
TGI (OVCAR-8 ovarian): > 100 µM
GI50 (NCI/ADR-RES ovarian): > 100 µM
TGI (NCI/ADR-RES ovarian): > 100 µM
GI50 (COLO 205 colon): 2.21 µM
TGI (COLO 205 colon): 4.78 µM
GI50 (HS 578T breast): 1.73 µM
TGI (HS 578T breast): 4.68 µM
GI50 (UACC-62 melanoma): 1.73 µM
TGI (UACC-62 melanoma): 3.22 µM

CCCc1cn2c(/C=N/N=C(N)N)c(-c3ccc(Cl)c([N+](=O)[O-])c3)nc2s1
TGI (CCRF-CEM leukemia): 0.375 µM
TGI (A498 renal): 3.2 µM
TGI (HT29 colon): 2.04 µM
TGI (TK-10 renal): 2.91 µM
TGI (SNB-75 CNS): 3.12 µM
TGI (DU-145 prostate): 3.15 µM
TGI (SN12C renal): 3.33 µM
TGI (SF-539 CNS): 3.31 µM
TGI (MOLT-4 leukemia): 0.546 µM
TGI (SK-OV-3 ovarian): 2.86 µM
TGI (MDA-MB-435): 3.21 µM
TGI (OVCAR-4 ovarian): 2.28 µM
TGI (ACHN renal): 3.06 µM
TGI (SK-MEL-28 melanoma): 3.1 µM
TGI (HCT-15 colon): 3.07 µM
TGI (OVCAR-5 ovarian): 2.89 µM
TGI (PC-3 prostate): 3.53 µM
TGI (CAKI-1 renal): 3.28 µM
TGI (SF-295 CNS): 3.1 µM
TGI (SR leukemia): 2.75 µM
TGI (NCI/ADR-RES ovarian): 4.95 µM
TGI (UACC-62 melanoma): 3.38 µM
TGI (BT-549 breast): 3.08 µM

Cc1c2c(nn1-c1ccc(S(=O)(=O)NC(=S)NC(=O)c3ccccc3)cc1)-c1ccccc1CC2
GI50 (CCRF-CEM leukemia): > 100 µM
TGI (CCRF-CEM leukemia): > 100 µM
GI50 (SW-620 colon): > 100 µM
TGI (SW-620 colon): > 100 µM
GI50 (HL-60(TB) leukemia): 3.85 µM
TGI (HL-60(TB) leukemia): > 100 µM
GI50 (K-562 leukemia): 6.09 µM
TGI (K-562 leukemia): > 100 µM
GI50 (A549 NSCLC): 54.1 µM
TGI (A549 NSCLC): > 100 µM
GI50 (T-47D breast): 44.9 µM
TGI (T-47D breast): > 100 µM
GI50 (LOX IMVI melanoma): 50.3 µM
TGI (LOX IMVI melanoma): > 100 µM
GI50 (NCI-H23 lung): 53.9 µM
TGI (NCI-H23 lung): > 100 µM
GI50 (HT29 colon): > 100 µM
TGI (HT29 colon): > 100 µM
GI50 (NCI-H460 lung): 45.1 µM
TGI (NCI-H460 lung): > 100 µM
GI50 (TK-10 renal): 28.9 µM
TGI (TK-10 renal): 78.5 µM
GI50 (SNB-75 CNS): 59.5 µM
TGI (SNB-75 CNS): > 100 µM
GI50 (SK-MEL-5 melanoma): 30.7 µM
TGI (SK-MEL-5 melanoma): 96.5 µM
GI50 (DU-145 prostate): 23.9 µM
TGI (DU-145 prostate): > 100 µM
GI50 (SN12C renal): 34.4 µM
TGI (SN12C renal): > 100 µM
GI50 (MCF7 breast): 35.9 µM
TGI (MCF7 breast): > 100 µM
GI50 (NCI-H226 lung): 60.2 µM
TGI (NCI-H226 lung): > 100 µM
GI50 (M14 melanoma): > 100 µM
TGI (M14 melanoma): > 100 µM
GI50 (MOLT-4 leukemia): > 100 µM
TGI (MOLT-4 leukemia): > 100 µM
GI50 (SK-OV-3 ovarian): > 100 µM
TGI (SK-OV-3 ovarian): > 100 µM
GI50 (SK-MEL-2 melanoma): > 100 µM
TGI (SK-MEL-2 melanoma): > 100 µM
GI50 (UACC-257 melanoma): 10.7 µM
TGI (UACC-257 melanoma): 47.4 µM
GI50 (MDA-MB-435): 27.9 µM
TGI (MDA-MB-435): 91.4 µM
GI50 (KM12 colon): 34.5 µM
TGI (KM12 colon): > 100 µM
GI50 (MDA-MB-231 breast): 42.5 µM
TGI (MDA-MB-231 breast): > 100 µM
GI50 (UO-31 renal): > 100 µM
TGI (UO-31 renal): > 100 µM
GI50 (OVCAR-4 ovarian): > 100 µM
TGI (OVCAR-4 ovarian): > 100 µM
GI50 (ACHN renal): 41 µM
TGI (ACHN renal): > 100 µM
GI50 (HCC-2998 colon): 89.2 µM
TGI (HCC-2998 colon): > 100 µM
GI50 (IGROV1 ovarian): > 100 µM
TGI (IGROV1 ovarian): > 100 µM
GI50 (NCI-H522 lung): 50.4 µM
TGI (NCI-H522 lung): > 100 µM
GI50 (SK-MEL-28 melanoma): 41.1 µM
TGI (SK-MEL-28 melanoma): > 100 µM
GI50 (HCT-15 colon): 39.5 µM
TGI (HCT-15 colon): > 100 µM
GI50 (OVCAR-5 ovarian): > 100 µM
TGI (OVCAR-5 ovarian): > 100 µM
GI50 (HOP-92 NSCLC): > 100 µM
TGI (HOP-92 NSCLC): > 100 µM
GI50 (PC-3 prostate): 42 µM
TGI (PC-3 prostate): > 100 µM
GI50 (OVCAR-3 ovarian): 13.7 µM
TGI (OVCAR-3 ovarian): 41.4 µM
GI50 (HOP-62 NSCLC): > 100 µM
TGI (HOP-62 NSCLC): > 100 µM
GI50 (SNB-19 CNS): 96.4 µM
TGI (SNB-19 CNS): > 100 µM
GI50 (CAKI-1 renal): 16.1 µM
TGI (CAKI-1 renal): 51.9 µM
GI50 (RPMI-8226 leukemia): 36.3 µM
TGI (RPMI-8226 leukemia): > 100 µM
GI50 (SF-295 CNS): 17.4 µM
TGI (SF-295 CNS): 48.6 µM
GI50 (SR leukemia): 0.759 µM
TGI (SR leukemia): > 100 µM
GI50 (U251 CNS): 43.3 µM
TGI (U251 CNS): > 100 µM
GI50 (OVCAR-8 ovarian): 72.4 µM
TGI (OVCAR-8 ovarian): > 100 µM
GI50 (786-0 renal): > 100 µM
TGI (786-0 renal): > 100 µM
GI50 (SF-268 CNS): 29.3 µM
TGI (SF-268 CNS): > 100 µM
GI50 (NCI/ADR-RES ovarian): > 100 µM
TGI (NCI/ADR-RES ovarian): > 100 µM
GI50 (COLO 205 colon): 44.9 µM
TGI (COLO 205 colon): > 100 µM
GI50 (UACC-62 melanoma): 29 µM
TGI (UACC-62 melanoma): > 100 µM
